These results are taken from patent US20250213555A1, “SUBSTITUTED TETRAHYDROFURAN ANALOGS AS MODULATORS OF SODIUM CHANNELS” (VERTEX PHARMACEUTICALS INCORPORATED, priority 2021, published 2025).

Where only a bound is given, the exact number is not on record here.

For this assay, the target named is human Nav 1.8 (Homo sapiens, UniProt Q9Y5Y9). The experiment in a line: E-VIPR assay detecting and measuring Nav inhibition properties. It is filed as cell-based. The following applies: HEK cells expressing a truncated form of human Nav 1.8; compound numbers without "*" (not marked as run in the presence of human serum); read-out: measured IC50 value in the E-VIPR Assay. From the text: E-VIPR Assay Detecting and Measuring Nav Inhibition Properties
Chain of human Nav 1.8 (Q9Y5Y9 126-399 limits assumed): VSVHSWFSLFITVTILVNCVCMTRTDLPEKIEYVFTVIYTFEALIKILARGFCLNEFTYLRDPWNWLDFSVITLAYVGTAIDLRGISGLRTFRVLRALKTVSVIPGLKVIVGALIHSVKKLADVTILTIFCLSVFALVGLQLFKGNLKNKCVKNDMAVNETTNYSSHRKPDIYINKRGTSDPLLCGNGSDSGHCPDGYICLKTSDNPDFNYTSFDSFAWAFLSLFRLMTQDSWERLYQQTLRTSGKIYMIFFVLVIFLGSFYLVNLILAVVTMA
Chain of human Nav 1.8 (Q9Y5Y9 660-890 limits assumed): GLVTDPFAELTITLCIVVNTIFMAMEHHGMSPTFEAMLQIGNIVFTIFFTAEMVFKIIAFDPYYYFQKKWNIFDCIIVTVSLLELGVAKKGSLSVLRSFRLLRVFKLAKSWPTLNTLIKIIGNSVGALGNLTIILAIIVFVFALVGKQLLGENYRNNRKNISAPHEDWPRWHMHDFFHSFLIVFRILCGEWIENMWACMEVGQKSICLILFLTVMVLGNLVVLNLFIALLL
Chain of human Nav 1.8 (Q9Y5Y9 1148-1722 limits assumed): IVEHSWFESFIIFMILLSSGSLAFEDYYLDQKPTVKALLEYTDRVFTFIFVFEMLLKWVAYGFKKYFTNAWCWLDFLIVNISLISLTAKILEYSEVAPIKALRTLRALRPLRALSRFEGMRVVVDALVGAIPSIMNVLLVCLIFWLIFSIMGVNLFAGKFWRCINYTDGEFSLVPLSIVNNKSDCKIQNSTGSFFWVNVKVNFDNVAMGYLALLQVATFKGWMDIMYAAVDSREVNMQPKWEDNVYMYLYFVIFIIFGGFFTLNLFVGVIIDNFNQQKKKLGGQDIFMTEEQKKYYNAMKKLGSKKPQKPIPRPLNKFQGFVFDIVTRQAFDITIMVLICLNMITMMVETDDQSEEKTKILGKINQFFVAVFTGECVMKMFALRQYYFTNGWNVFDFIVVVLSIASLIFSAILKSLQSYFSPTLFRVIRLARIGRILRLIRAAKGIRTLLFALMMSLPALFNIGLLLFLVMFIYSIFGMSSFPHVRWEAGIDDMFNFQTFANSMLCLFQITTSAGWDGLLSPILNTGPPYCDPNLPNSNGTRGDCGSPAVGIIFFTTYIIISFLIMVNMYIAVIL
Sodium ion channels are voltage-dependent proteins that can be activated by inducing membrane voltage changes by applying electric fields. The electrical stimulation instrument and methods of use, referred to as E-VIPR, are described in International Publication No. WO 2002/008748 A3 and C.-J. Huang et al. Characterization of voltage-gated sodium channel blockers by electrical stimulation and fluorescence detection of membrane potential, 24 Nature Biotech. 439-46 (2006), both of which are incorporated by reference in their entirety. The instrument comprises a microtiter plate handler, an optical system for exciting the coumarin dye while simultaneously recording the coumarin and oxonol emissions, a waveform generator, a current- or voltage-controlled amplifier, and parallel electrode pairs that are inserted into assay plate wells. Under integrated computer control, this instrument passes user-programmed electrical stimulus protocols to cells within the wells of the microtiter plate.
16-20 hours prior to running the assay on E-VIPR, HEK cells expressing a truncated form of human Nav 1.8 with full channel activity were seeded into microtiter 384-well plates, pre-coated with matrigel, at a density of 25,000 cells per well. 2.5-5% KIR2.1 Bacmam virus was added to the final cell suspension before seeding into cell plates. HEK cells were grown in Dulbecco's Modified Eagle's Medium (DMEM) supplemented with 10% FBS (Fetal Bovine Serum, qualified; Sigma #F4135), 1% NEAA (Non-Essential Amino Acids, Gibco #11140), 1% HEPES (Gibco #15630), 1% Pen-Strep (Penicillin-Streptomycin; Gibco #15140) and 5 μg/ml Blasticidin (Gibco #R^210-01). Cells were expanded in vented cap cell culture flasks, with 90-95% humidity and 5% CO2.
100 mg/mL Pluronic F-127 (Sigma #P2443), in dry DMSO
Compound Plates: Corning 384-well Polypropylene Round Bottom #3656
Cell Plates: 384-well tissue culture treated plates (Greiner #781091-2B)
2.5-5% KIR 2.1 Bacmam virus (produced in-house), prepared as described in Section 3.3 of J. A. Fornwald et al., Gene Expression in Mammalian Cells Using BacMam, a Modified Baculovirus System, 1350 Methods in Molecular Biology 95-116 (2016), the entire contents of which are incorporated by reference. The concentration used can be dependent on viral titer of each batch.
5 mM DiSBAC6(3), a voltage sensitive oxonol acceptor (CAS number 169211-44-3; 5-[3-(1,3-dihexylhexahydro-4,6-dioxo-2-thioxo-5-pyrimidinyl)-2-propen-1-ylidene]-1,3-dihexyldihydro-2-thioxo-4,6 (1H,5H)-pyrimidinedione), in dry DMSO. The preparation of DiSBAC6(3) is analogous to that of DiSBAC4(3) as described in Voltage Sensing by Fluorescence Resonance Energy Transfer in Single Cells, Gonzalez, J. E. and Tsien, R. Y. (1995) Biophys. J. 69, 1272-1280.
5 mM CC2-DMPE, a commercially available membrane-bound coumarin phospholipid FRET donor (ThermoFisher Scientific catalog number K1017, CAS number 393782-57-5; tetradecanoic acid, 1,1′-[(1R)-1-[8-(6-chloro-7-hydroxy-2-oxo-2H-1-benzopyran-3-yl)-3-hydroxy-3-oxido-8-oxo-2,4-dioxa-7-aza-3-phosphaoct-1-yl]-1,2-ethanediyl] ester) was prepared in dry DMSO. See also, Improved indicators of cell membrane potential that use fluorescence resonance energy transfer, Gonzalez, J. E. and Tsien, R. Y. (1997) Chem. Biol. 4, 269-277.
Voltage Assay Background Suppression Compound (VABSC-1) is prepared in H2O (89-363 mM, range used to maintain solubility)
Human Serum (HS, Millipore #S1P1-01KL, or Sigma SLBR5469V and SLBR5470V as a 50%/50% mixture, for 25% assay final concentration)
• Sodium Chloride 160 mM (9.35 g/L), Potassium Chloride, 4.5 mM (0.335 g/L), Glucose 10 mM (1.8 g/L), Magnesium Chloride (Anhydrous) 1 mM (0.095 g/L), Calcium Chloride 2 mM (0.222 g/L), HEPES 10 mM (2.38 g/L) in water. […]
Consider `CN[C@H]1CN(C(=O)c2cc(NC(=O)[C@@H]3O[C@@](C)(C(F)(F)F)[C@@H](C)[C@H]3c3ccc(F)c(F)c3OC)ccn2)C[C@H]1F` [Compound 292, (2R,3S,4S,5R)-3-(3,4-difluoro-2-methoxyphenyl)-N-(2-((3R,4S)-3-fluoro-4-(methylamino)pyrrolidine-1-carbonyl)pyridin-4-yl)-4,5-dimethyl-5-(trifluoromethyl)tetrahydrofuran-2-carboxamide], for which the IC50 (as a rule, the concentration at which inhibition is half-maximal) was less than 0.01 µM.

Consider `COc1c(Cl)cc([C@H]2[C@H](C(=O)Nc3ccnc(C(N)=O)c3)O[C@@](C)(C(F)(F)F)[C@H]2C)c(OC)c1F` [Compound 154, 4-((2R,3S,4S,5R)-3-(5-chloro-3-fluoro-2,4-dimethoxyphenyl)-4,5-dimethyl-5-(trifluoromethyl)tetrahydrofuran-2-carboxamido) picolinamide], for which the half-maximal inhibitory concentration (IC50) is less than 0.01 µM. The result for `COc1c([C@H]2[C@H](C(=O)Nc3ccnc(C(=O)N[C@H]4CN(C)C[C@@H]4OC)c3)O[C@@](C)(C(F)(F)F)[C@H]2C)ccc(F)c1F` [Compound 281, 4-((2R,3S,4S,5R)-3-(3,4-difluoro-2-methoxyphenyl)-4,5-dimethyl-5-(trifluoromethyl)tetrahydrofuran-2-carboxamido)-N-((3S,4S)-4-methoxy-1-methylpyrrolidin-3-yl)picolinamide] reads 0.01 to 0.1 µM.

On to `C[C@H]1[C@@H](c2ccc(F)c(F)c2OCc2cnn(C)c2)[C@H](C(=O)Nc2ccnc(C(N)=O)c2)O[C@@]1(C)C(F)(F)F` [Compound 73, 4-((2R,3S,4S,5R)-3-(3,4-difluoro-2-((1-methyl-1H-pyrazol-4-yl)methoxy)phenyl)-4,5-dimethyl-5-(trifluoromethyl)tetrahydrofuran-2-carboxamido)picolinamide], for which the concentration for half-maximal inhibition (IC50) was less than 0.01 µM.

Consider `C[C@H]1[C@@H](c2ccc(F)c(F)c2OCC2(F)CN(C)C2)[C@H](C(=O)Nc2ccnc(C(N)=O)c2)O[C@@]1(C)C(F)(F)F` [Compound 105, 4-((2R,3S,4S,5R)-3-(3,4-difluoro-2-((3-fluoro-1-methylazetidin-3-yl)methoxy)phenyl)-4,5-dimethyl-5-(trifluoromethyl)tetrahydrofuran-2-carboxamido)picolinamide], for which the IC50 lay within 0.01 to 0.1 µM. Take `COc1c([C@H]2[C@H](C(=O)Nc3ccnc(C(=O)N4C[C@H]5C[C@@H]4CN5C)c3)O[C@@](C)(C(F)(F)F)[C@H]2C)ccc(F)c1F` [Compound 279, (2R,3S,4S,5R)-3-(3,4-difluoro-2-methoxyphenyl)-4,5-dimethyl-N-(2-((1R,4R)-5-methyl-2,5-diazabicyclo[2.2.1]heptane-2-carbonyl)pyridin-4-yl)-5-(trifluoromethyl)tetrahydrofuran-2-carboxamide]: the IC50 lay within 0.01 to 0.1 µM.

For the molecule `Cc1cnc(C(N)=O)cc1NC(=O)C1OC(C)(C(F)(F)F)C(C)C1c1ccc(F)c(F)c1OC1CC(O)C1` (centres unmarked) [Compound 203], the half-maximal inhibitory concentration (IC50) lay in the range of 0.01 to 0.1 µM.

In the case of `COc1c([C@H]2[C@H](C(=O)Nc3cc(C(=O)N4CCNCC4)ncc3F)O[C@@](C)(C(F)(F)F)[C@H]2C)ccc(F)c1F` [Compound 16, (2R,3S,4S,5R)-3-(3,4-difluoro-2-methoxy-phenyl)-N-[5-fluoro-2-(piperazine-1-carbonyl)-4-pyridyl]-4,5-dimethyl-5-(trifluoromethyl)tetrahydrofuran-2-carboxamide], the half-maximal inhibitory concentration (IC50) is 0.01 to 0.1 µM. The result for `COC[C@H]1CN(C(=O)c2cc(NC(=O)[C@@H]3O[C@@](C)(C(F)(F)F)[C@@H](C)[C@H]3c3ccc(F)c(F)c3OC)ccn2)CCN1C` [Compound 287, (2R,3S,4S,5R)-3-(3,4-difluoro-2-methoxyphenyl)-N-(2-((R)-3-(methoxymethyl)-4-methylpiperazine-1-carbonyl)pyridin-4-yl)-4,5-dimethyl-5-(trifluoromethyl)tetrahydrofuran-2-carboxamide] reads less than 0.01 µM; that for `CO[C@H](CO)COc1c([C@H]2[C@H](C(=O)Nc3ccnc(C(N)=O)c3)O[C@@](C)(C(F)(F)F)[C@H]2C)ccc(F)c1F` (single isomer, unassigned) [Compound 161, rel-4-((2R*,3S*,4S*,5R*)-3-(3,4-difluoro-2-(3-hydroxy-2-methoxypropoxy)phenyl)-4,5-dimethyl-5-(trifluoromethyl)tetrahydrofuran-2-carboxamido)picolinamide], 0.01 to 0.1 µM; that for `COc1c([C@H]2[C@H](C(=O)Nc3ccnc(C(=O)N4CC[C@@H](O)C4)c3)O[C@@](C)(C(F)(F)F)[C@H]2C)ccc(F)c1F` [Compound 220, (2R,3S,4S,5R)-3-(3,4-difluoro-2-methoxyphenyl)-N-(2-((R)-3-hydroxypyrrolidine-1-carbonyl)pyridin-4-yl)-4,5-dimethyl-5-(trifluoromethyl)tetrahydrofuran-2-carboxamide], less than 0.01 µM. The result for `C[C@H]1CN(CCOc2c([C@H]3[C@H](C(=O)Nc4ccnc(C(N)=O)c4)O[C@@](C)(C(F)(F)F)[C@H]3C)ccc(F)c2F)CCO1` [Compound 111, 4-((2R,3S,4S,5R)-3-(3,4-difluoro-2-(2-((S)-2-methylmorpholino)ethoxy)phenyl)-4,5-dimethyl-5-(trifluoromethyl)tetrahydrofuran-2-carboxamido)picolinamide] reads less than 0.01 µM; that for `CC(C)C(COc1c([C@H]2[C@H](C(=O)Nc3ccnc(C(N)=O)c3)O[C@@](C)(C(F)(F)F)[C@H]2C)ccc(F)c1F)=NO` [Compound 186, 4-((2R,3S,4S,5R)-3-(3,4-difluoro-2-(2-(hydroxyimino)-3-methylbutoxy)phenyl)-4,5-dimethyl-5-(trifluoromethyl)tetrahydrofuran-2-carboxamido)picolinamide], less than 0.01 µM; that for `CC=C(CO)COc1c([C@H]2[C@H](C(=O)Nc3ccnc(C(N)=O)c3)O[C@@](C)(C(F)(F)F)[C@H]2C)ccc(F)c1F` (single isomer, unassigned) [Compound 164, rel-4-((2R*,3S*,4S*,5R*)-3-(3,4-difluoro-2-((2-(hydroxymethyl)but-2-en-1-yl)oxy)phenyl)-4,5-dimethyl-5-(trifluoromethyl)tetrahydrofuran-2-carboxamido)picolinamide], less than 0.01 µM. The result for `COc1c([C@@H]2[C@@H](C(=O)Nc3ccnc(C(N)=O)c3)O[C@](C)(C(F)(F)F)[C@@H]2C)ccc(F)c1CO` (single isomer, unassigned) [Compound 137] reads no less than 1 µM; that for `COc1c([C@H]2[C@H](C(=O)Nc3ccnc(C(=O)N4CC5COCC(C4)N5C)c3)O[C@@](C)(C(F)(F)F)[C@H]2C)ccc(F)c1F` [Compound 284, (2R,3S,4S,5R)-3-(3,4-difluoro-2-methoxyphenyl)-4,5-dimethyl-N-(2-(9-methyl-3-oxa-7,9-diazabicyclo[3.3.1]nonane-7-carbonyl)pyridin-4-yl)-5-(trifluoromethyl)tetrahydrofuran-2-carboxamide], less than 0.01 µM.

`C[C@H]1[C@@H](c2cc(Br)c(F)c(F)c2O)[C@H](C(=O)Nc2ccnc(C(N)=O)c2)O[C@@]1(C)C(F)(F)F` [Compound 176, 4-((2R,3S,4S,5R)-3-(5-bromo-3,4-difluoro-2-hydroxyphenyl)-4,5-dimethyl-5-(trifluoromethyl)tetrahydrofuran-2-carboxamido)picolinamide]: the IC50 was no less than 1 µM.
